Columns and labels:
IRAK4 = molecular target: T1, IRAK4 (Homo sapiens, UniProt Q9NWZ3); experiment: IRAK4 enzymatic assay (ADP-Glo luminescence); type: biochemical; conditions: purified human recombinant His-TEV-IRAK4 (1-460), ATP 2 μM
T1 construct: His-TEV-IRAK4 (1-460); His (N); TEV cleavage site (N)
T1 sequence (Q9NWZ3 1-460): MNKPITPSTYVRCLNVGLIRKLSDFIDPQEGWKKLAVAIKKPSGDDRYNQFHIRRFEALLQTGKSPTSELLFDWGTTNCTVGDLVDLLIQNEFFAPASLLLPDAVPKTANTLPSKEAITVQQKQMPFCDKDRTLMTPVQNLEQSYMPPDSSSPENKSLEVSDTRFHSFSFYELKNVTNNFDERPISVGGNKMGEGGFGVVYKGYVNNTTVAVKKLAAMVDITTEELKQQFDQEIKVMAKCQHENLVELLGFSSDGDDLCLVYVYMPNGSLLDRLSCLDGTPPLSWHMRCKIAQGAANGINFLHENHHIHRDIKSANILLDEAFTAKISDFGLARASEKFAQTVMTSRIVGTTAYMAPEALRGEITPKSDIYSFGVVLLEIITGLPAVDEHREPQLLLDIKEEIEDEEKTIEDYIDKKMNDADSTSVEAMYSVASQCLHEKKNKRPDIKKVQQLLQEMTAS
Protocol: IRAK4 is a human purified recombinant enzyme (His-TEV-IRAK4 (1-460)).
In this assay, IRAK4 hydrolyses ATP, autophosphorylates and phosphorylates a Serine/Threonine generic peptidic substrate (STK: 61ST1BLC from CisBio International). Measurement of IRAK-4 inhibition is performed in 384-well format based on a luminescence assay (ADP-Glo™ Kinase Assay from Promega). Purified human recombinant IRAK4 (0.3 μg/ml) and serial diluted compounds in DMSO (range of concentration from 10 μM to 0.5 nM) or controls (1% DMSO) are incubated for 15 minutes at RT in assay buffer containing 50 mM Hepes pH 7.0, Fatty acid-free BSA 0.1%, Dithiothreitol (DTT) 2 mM, MgCl2 10 mM, EGTA 0.5 mM, Triton X-100 0.01%, MnCl2 5 mM. The kinase reaction is then initiated by the addition of ATP (2 μM) and the peptidic substrate STK1-biotin peptide (300 nM). After 2 hours of incubation at RT, the reaction is stopped and the unconsumed ATP depleted by the addition of ADP-Glo™ Reagent according to supplier instructions. After 40 minutes of incubation at RT, the Kinase Detection Reagent is then added to the assay plate according to supplier instructions. After 20 minutes of incubation at RT, the luminescence signal is measured with a plate-reading luminometer (PerkinElmer Envision or equivalent reader).

IRAK1 = molecular target: T2, IRAK1 (Homo sapiens, UniProt P51617); experiment: IRAK1 enzymatic assay (ADP-Glo luminescence); type: biochemical; conditions: purified human recombinant His-TEV-IRAK1 (194-712)
T2 construct: His-TEV-IRAK1 (194-712); His (N); TEV cleavage site (N)
T2 sequence (P51617 194-712): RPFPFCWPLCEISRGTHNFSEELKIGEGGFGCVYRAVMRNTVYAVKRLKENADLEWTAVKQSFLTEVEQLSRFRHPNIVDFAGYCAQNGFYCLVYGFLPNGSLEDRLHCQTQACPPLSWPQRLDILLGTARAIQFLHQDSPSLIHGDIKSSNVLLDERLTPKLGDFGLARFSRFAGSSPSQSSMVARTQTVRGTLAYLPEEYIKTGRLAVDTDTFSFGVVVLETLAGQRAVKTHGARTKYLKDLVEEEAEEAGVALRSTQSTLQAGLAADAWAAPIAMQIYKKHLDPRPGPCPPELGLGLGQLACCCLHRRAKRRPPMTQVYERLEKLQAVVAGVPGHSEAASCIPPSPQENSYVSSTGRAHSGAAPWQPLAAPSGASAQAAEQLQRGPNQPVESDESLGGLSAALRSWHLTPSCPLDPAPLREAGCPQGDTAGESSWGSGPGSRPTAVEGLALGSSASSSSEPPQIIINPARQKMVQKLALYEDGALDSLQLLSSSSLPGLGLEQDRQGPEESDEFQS
Protocol: IRAK1 is a human purified recombinant enzyme (His-TEV-IRAK1 (194-712))
In this assay, IRAK1 hydrolyses ATP and autophosphorylates. Measurement of IRAK-1 inhibition is performed in 384-well format based on luminescence assay (ADP-Glo™ Kinase Assay from Promega). Purified human recombinant IRAK1 (0.3 μg/ml) and serial diluted compounds in DMSO (range of concentration from 10 μM to 0.5 nM) or controls (1% DMSO) are incubated for 15 minutes at RT in assay buffer containing 50 mM Hepes pH 7.0, Fatty acid-free BSA 0.1%, Dithiothreitol (DTT) 2 mM, MgCl2 10 mM, EGTA 0.5 mM, Triton X-100 0.01%. The kinase reaction is then initiated by the addition of ATP […] After 2 hours of incubation at RT, the reaction is stopped and the unconsumed ATP depleted by the addition of ADP-Glo™ Reagent according to supplier instructions. After 40 minutes of incubation at RT, the Kinase Detection Reagent is then added to the assay plate according to supplier instructions. After 20 minutes of incubation at RT, the luminescence signal is measured with a luminometer (PerkinElmer Envision or equivalent reader).

SMILES	IC50 (IRAK4)	IC50 (IRAK1)
O=C(/N=c1\[nH]c2cc(N3CCOCC3=O)ccc2n1CCCO)c1cccc(Br)c1 [Compound 37, (E)-3-bromo-N-(1-(3-hydroxypropyl)-5-(3-oxomorpholino)-1H-benzo[d]imidazol-2(3H)-ylidene)benzamide]	≤ 100 nM	100 to 1000 nM
COc1ccc(C(=O)/N=c2\[nH]c3cc(N4CCOCC4=O)ccc3n2CCCO)cc1C#N [Compound 38, (E)-3-cyano-N-(1-(3-hydroxypropyl)-5-(3-oxomorpholino)-1H-benzo[d]imidazol-2(3H)-ylidene)-4-methoxybenzamide]	> 1000 nM	> 1000 nM
O=C(/N=c1\[nH]c2cc(N3CCOCC3=O)ccc2n1C1(CO)CCCCC1)c1cccc(C(F)(F)F)c1 [Compound 39, (E)-N-(1-(1-(hydroxymethyl)cyclohexyl)-5-(3-oxomorpholino)-1H-benzo[d]imidazol-2(3H)-ylidene)-3-(trifluoromethyl)benzamide]	> 1000 nM	> 1000 nM
COc1cc2c(cc1N1CCOCC1=O)[nH]/c(=N\C(=O)c1cccc(C(F)F)c1)n2[C@H](C)CCO [Compound 40, (R,E)-3-(difluoromethyl)-N-(1-(4-hydroxybutan-2-yl)-6-methoxy-5-(3-oxomorpholino)-1H-benzo[d]imidazol-2(3H)-ylidene)benzamide]	≤ 100 nM	≤ 100 nM
C[C@H](CCO)n1/c(=N/C(=O)c2cccc(C#N)c2)[nH]c2cc(N3CCCOC3=O)ccc21 [Compound 42, (R,E)-3-cyano-N-(1-(4-hydroxybutan-2-yl)-5-(2-oxo-1,3-oxazinan-3-yl)-1H-benzo[d]imidazol-2(3H)-ylidene)benzamide]	≤ 100 nM	100 to 1000 nM
C[C@H](CCO)n1/c(=N/C(=O)c2cccc(C(F)(F)F)c2)[nH]c2cc(N3CCCOC3=O)ccc21 [Compound 43, (R,E)-N-(1-(4-hydroxybutan-2-yl)-5-(2-oxo-1,3-oxazinan-3-yl)-1H-benzo[d]imidazol-2(3H)-ylidene)-3-(trifluoromethyl)benzamide]	≤ 100 nM	100 to 1000 nM
C[C@H](CCO)n1/c(=N/C(=O)c2cccc(C(F)F)c2)[nH]c2cc(N3CCCOC3=O)ccc21 [Compound 44, (R,E)-3-(difluoromethyl)-N-(1-(4-hydroxybutan-2-yl)-5-(2-oxo-1,3-oxazinan-3-yl)-1H-benzo[d]imidazol-2(3H)-ylidene)benzamide]	≤ 100 nM	100 to 1000 nM
O=C(/N=c1\[nH]c2cc(N3CCOCC3=O)ccc2n1C1CCCCC1)c1cccc(C(F)(F)F)c1 [Compound 45, (E)-N-(1-cyclohexyl-5-(3-oxomorpholino)-1H-benzo[d]imidazol-2(3H)-ylidene)-3-(trifluoromethyl)benzamide]	100 to 1000 nM	> 1000 nM
O=C(/N=c1\[nH]c2cc(N3CCCNC3=O)ccc2n1CCCO)c1cccc(C(F)F)c1 [Compound 46, (E)-3-(difluoromethyl)-N-(1-(3-hydroxypropyl)-5-(2-oxotetrahydropyrimidin-1(2H)-yl)-1H-benzo[d]imidazol-2(3H)-ylidene)benzamide]	≤ 100 nM	100 to 1000 nM
CC(=O)NCc1cccc(C(=O)/N=c2\[nH]c3cc(N4CCOCC4=O)ccc3n2CCCO)c1 [Compound 47, (E)-3-(acetamidomethyl)-N-(1-(3-hydroxypropyl)-5-(3-oxomorpholino)-1H-benzo[d]imidazol-2(3H)-ylidene)benzamide]	100 to 1000 nM	100 to 1000 nM
N#Cc1cccc(C(=O)/N=c2\[nH]c3cc(N4CCOCC4=O)c(Br)cc3n2CCCO)c1 [Compound 48, (E)-N-(6-bromo-1-(3-hydroxypropyl)-5-(3-oxomorpholino)-1H-benzo[d]imidazol-2(3H)-ylidene)-3-cyanobenzamide]	≤ 100 nM	100 to 1000 nM
O=C(/N=c1\[nH]c2cc(N3CCOCC3=O)c(Br)cc2n1CCCO)c1cccc(C(F)F)c1 [Compound 49, (E)-N-(6-bromo-1-(3-hydroxypropyl)-5-(3-oxomorpholino)-1H-benzo[d]imidazol-2(3H)-ylidene)-3-(difluoromethyl)benzamide]	≤ 100 nM	100 to 1000 nM
O=C(/N=c1\[nH]c2cc(N3CCOCC3=O)c(Br)cc2n1CCCO)c1cccc(C(F)(F)F)c1 [Compound 50, (E)-N-(6-bromo-1-(3-hydroxypropyl)-5-(3-oxomorpholino)-1H-benzo[d]imidazol-2(3H)-ylidene)-3-(trifluoromethyl)benzamide]	≤ 100 nM	100 to 1000 nM
COc1cc2c(cc1N1CCOCC1=O)[nH]/c(=N\C(=O)c1cccc(C#N)c1)n2CC1(CO)CC1 [Compound 51, (E)-3-cyano-N-(1-((1-(hydroxymethyl)cyclopropyl)methyl)-6-methoxy-5-(3-oxomorpholino)-1H-benzo[d]imidazol-2(3H)-ylidene)benzamide]	≤ 100 nM	100 to 1000 nM

Further lines, results first:

IC50 (IRAK4)	IC50 (IRAK1)	SMILES
≤ 100 nM	≤ 100 nM	COc1cc2c(cc1N1CCOCC1=O)[nH]/c(=N\C(=O)c1cccc(C(F)F)c1)n2CC1(CO)CC1 [Compound 52, (E)-3-(difluoromethyl)-N-(1-((1-(hydroxymethyl)cyclopropyl)methyl)-6-methoxy-5-(3-oxomorpholino)-1H-benzo[d]imidazol-2(3H)-ylidene)benzamide]
≤ 100 nM	≤ 100 nM	COc1cc2c(cc1N1CCOCC1=O)[nH]/c(=N\C(=O)c1cccc(C(F)(F)F)c1)n2CC1(CO)CC1 [Compound 53, (E)-N-(1-((1-(hydroxymethyl)cyclopropyl)methyl)-6-methoxy-5-(3-oxomorpholino)-1H-benzo[d]imidazol-2(3H)-ylidene)-3-(trifluoromethyl)benzamide]
≤ 100 nM	≤ 100 nM	CS(=O)(=O)c1cccc(C(=O)/N=c2\[nH]c3cc(N4CCOCC4=O)ccc3n2[C@H]2CC[C@@H](O)CC2)c1 [Compound 54, cis-(E)-N-(1-(4-hydroxycyclohexyl)-5-(3-oxomorpholino)-1H-benzo[d]imidazol-2(3H)-ylidene)-3-(methylsulfonyl)benzamide]
≤ 100 nM	≤ 100 nM	N#Cc1cccc(C(=O)/N=c2\[nH]c3cc(N4CCOCC4=O)ccc3n2[C@H]2CC[C@@H](O)CC2)c1 [Compound 55, cis-(E)-3-cyano-N-(1-(4-hydroxycyclohexyl)-5-(3-oxomorpholino)-1H-benzo[d]imidazol-2(3H)-ylidene)benzamide]
≤ 100 nM	≤ 100 nM	O=C(/N=c1\[nH]c2cc(N3CCOCC3=O)ccc2n1[C@H]1CC[C@@H](O)CC1)c1cccc(C(F)F)c1 [Compound 56, cis-(E)-3-(difluoromethyl)-N-(1-(4-hydroxycyclohexyl)-5-(3-oxomorpholino)-1H-benzo[d]imidazol-2(3H)-ylidene)benzamide]
≤ 100 nM	≤ 100 nM	O=C(/N=c1\[nH]c2cc(N3CCOCC3=O)ccc2n1[C@H]1CC[C@@H](O)CC1)c1cccc(C(F)(F)F)c1 [Compound 57, cis-(E)-N-(1-(4-hydroxycyclohexyl)-5-(3-oxomorpholino)-1H-benzo[d]imidazol-2(3H)-ylidene)-3-(trifluoromethyl)benzamide]
≤ 100 nM	≤ 100 nM	N#Cc1cccc(C(=O)/N=c2\[nH]c3cc(N4CCCOC4=O)ccc3n2CCCO)c1 [Compound 58, (E)-3-cyano-N-(1-(3-hydroxypropyl)-5-(2-oxo-1,3-oxazinan-3-yl)-1H-benzo[d]imidazol-2(3H)-ylidene)benzamide]
